For three compounds, IC50 results are on record in patent US9266879B2, “Naphthridine derivatives as PI3K inhibitors for the treatment of cancer and immune-inflammatory disease” (Karus Therapeutic Limited, priority 2010, dated 2016).

Where two headings read alike, the source gives them in different places.

One assay deals with PI3K-p110β (Homo sapiens, UniProt P42338). Put plainly: Biochemical PI3K-p110β inhibition.
Another assay relates to MCF7 Breast Tumour Cell. Put plainly: MCF7 breast tumour cell growth inhibition. The format is cell-based. The settings on record: Homo sapiens.
The next assay concerns the target PI3K-p110α (Homo sapiens, UniProt P42336). In words: PI3K-p110α inhibition. The format is biochemical.
In the next assay the target is PI3K-p110δ (Homo sapiens, UniProt O00329). In words: PI3K-p110δ inhibition. Type of assay: biochemical.
PI3K-p110δ, sequence (O00329 whole entry): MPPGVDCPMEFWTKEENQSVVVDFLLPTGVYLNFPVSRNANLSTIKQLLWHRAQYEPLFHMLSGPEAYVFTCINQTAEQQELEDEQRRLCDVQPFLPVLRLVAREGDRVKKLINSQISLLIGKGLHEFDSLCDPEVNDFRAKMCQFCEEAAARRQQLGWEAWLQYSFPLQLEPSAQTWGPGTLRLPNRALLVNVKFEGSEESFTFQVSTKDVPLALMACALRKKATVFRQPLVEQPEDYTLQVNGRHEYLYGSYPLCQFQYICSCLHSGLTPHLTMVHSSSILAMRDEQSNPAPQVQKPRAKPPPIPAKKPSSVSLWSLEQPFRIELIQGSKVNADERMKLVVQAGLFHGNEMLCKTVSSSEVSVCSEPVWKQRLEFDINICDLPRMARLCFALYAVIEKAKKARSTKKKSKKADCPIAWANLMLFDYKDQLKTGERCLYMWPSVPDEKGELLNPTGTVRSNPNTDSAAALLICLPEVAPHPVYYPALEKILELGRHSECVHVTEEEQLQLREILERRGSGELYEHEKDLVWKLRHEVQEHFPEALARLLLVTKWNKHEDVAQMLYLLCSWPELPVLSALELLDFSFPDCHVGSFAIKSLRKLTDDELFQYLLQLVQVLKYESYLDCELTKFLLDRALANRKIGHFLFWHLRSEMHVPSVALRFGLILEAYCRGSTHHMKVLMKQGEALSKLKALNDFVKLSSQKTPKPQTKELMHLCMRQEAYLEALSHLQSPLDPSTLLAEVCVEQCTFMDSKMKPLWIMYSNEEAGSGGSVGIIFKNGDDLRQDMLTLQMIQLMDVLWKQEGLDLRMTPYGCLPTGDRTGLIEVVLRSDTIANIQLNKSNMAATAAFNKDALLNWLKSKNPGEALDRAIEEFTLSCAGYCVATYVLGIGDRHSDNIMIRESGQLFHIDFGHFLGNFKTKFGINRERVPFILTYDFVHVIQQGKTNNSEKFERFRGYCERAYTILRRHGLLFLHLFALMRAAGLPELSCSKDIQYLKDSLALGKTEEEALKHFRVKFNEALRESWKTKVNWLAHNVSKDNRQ
PI3K-p110δ, sequence (P27986 whole entry partner): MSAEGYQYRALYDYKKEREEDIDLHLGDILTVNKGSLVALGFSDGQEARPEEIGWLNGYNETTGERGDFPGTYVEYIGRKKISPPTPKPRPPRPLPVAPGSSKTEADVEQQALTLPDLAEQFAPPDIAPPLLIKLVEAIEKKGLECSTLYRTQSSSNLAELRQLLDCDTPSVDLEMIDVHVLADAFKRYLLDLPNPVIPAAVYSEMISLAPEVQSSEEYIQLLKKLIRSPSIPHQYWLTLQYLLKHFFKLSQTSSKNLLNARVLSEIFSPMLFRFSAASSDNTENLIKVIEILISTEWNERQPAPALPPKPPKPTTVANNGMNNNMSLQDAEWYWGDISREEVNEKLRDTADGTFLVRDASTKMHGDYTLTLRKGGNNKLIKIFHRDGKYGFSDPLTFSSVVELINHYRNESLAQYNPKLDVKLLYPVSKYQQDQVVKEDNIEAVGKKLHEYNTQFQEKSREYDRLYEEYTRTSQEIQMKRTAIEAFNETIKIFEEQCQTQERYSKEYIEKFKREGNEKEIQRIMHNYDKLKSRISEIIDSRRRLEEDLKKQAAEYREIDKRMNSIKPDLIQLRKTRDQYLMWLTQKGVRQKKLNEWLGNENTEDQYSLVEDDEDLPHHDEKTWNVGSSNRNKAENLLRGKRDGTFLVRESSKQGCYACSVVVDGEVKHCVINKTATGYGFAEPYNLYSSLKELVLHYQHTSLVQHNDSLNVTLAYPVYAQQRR
The next assay addresses PI3K-p110γ (Homo sapiens, UniProt P48736). Put plainly: PI3K-p110γ inhibition. Type of assay: biochemical.
The mark [1] stands for this setting: read-out: Biochemical IC50, PI3K-p110β.

PI3K-p110β, sequence (P42338 whole entry): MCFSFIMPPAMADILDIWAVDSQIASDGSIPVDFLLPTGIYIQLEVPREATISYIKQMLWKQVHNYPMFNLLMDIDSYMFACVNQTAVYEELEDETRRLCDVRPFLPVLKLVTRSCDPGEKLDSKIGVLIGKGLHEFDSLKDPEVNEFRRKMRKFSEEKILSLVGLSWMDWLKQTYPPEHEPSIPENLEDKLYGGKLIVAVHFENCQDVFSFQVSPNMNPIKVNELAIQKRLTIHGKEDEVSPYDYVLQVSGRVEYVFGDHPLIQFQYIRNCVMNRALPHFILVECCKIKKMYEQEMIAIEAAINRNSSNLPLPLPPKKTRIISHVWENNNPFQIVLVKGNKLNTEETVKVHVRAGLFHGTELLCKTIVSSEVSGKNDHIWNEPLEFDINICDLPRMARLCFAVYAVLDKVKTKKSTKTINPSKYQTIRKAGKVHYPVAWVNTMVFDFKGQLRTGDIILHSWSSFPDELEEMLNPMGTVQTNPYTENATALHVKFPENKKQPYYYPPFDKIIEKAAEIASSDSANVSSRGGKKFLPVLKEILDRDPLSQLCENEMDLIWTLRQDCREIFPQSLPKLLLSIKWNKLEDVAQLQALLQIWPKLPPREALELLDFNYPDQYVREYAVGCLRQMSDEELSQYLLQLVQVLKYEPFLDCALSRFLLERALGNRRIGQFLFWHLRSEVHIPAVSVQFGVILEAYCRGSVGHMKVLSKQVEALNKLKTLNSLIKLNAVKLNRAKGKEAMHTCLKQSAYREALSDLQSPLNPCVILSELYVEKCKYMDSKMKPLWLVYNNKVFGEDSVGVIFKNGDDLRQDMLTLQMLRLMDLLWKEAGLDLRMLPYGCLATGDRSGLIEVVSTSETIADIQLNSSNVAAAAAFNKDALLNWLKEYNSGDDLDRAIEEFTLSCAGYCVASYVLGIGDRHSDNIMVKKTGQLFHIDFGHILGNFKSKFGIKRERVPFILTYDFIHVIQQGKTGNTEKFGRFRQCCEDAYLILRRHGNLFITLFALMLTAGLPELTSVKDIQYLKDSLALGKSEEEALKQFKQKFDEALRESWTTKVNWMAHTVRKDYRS
PI3K-p110β, sequence (P27986 whole entry partner): as the sequence (P27986 whole entry partner) above
PI3K-p110α, sequence (P42336 whole entry): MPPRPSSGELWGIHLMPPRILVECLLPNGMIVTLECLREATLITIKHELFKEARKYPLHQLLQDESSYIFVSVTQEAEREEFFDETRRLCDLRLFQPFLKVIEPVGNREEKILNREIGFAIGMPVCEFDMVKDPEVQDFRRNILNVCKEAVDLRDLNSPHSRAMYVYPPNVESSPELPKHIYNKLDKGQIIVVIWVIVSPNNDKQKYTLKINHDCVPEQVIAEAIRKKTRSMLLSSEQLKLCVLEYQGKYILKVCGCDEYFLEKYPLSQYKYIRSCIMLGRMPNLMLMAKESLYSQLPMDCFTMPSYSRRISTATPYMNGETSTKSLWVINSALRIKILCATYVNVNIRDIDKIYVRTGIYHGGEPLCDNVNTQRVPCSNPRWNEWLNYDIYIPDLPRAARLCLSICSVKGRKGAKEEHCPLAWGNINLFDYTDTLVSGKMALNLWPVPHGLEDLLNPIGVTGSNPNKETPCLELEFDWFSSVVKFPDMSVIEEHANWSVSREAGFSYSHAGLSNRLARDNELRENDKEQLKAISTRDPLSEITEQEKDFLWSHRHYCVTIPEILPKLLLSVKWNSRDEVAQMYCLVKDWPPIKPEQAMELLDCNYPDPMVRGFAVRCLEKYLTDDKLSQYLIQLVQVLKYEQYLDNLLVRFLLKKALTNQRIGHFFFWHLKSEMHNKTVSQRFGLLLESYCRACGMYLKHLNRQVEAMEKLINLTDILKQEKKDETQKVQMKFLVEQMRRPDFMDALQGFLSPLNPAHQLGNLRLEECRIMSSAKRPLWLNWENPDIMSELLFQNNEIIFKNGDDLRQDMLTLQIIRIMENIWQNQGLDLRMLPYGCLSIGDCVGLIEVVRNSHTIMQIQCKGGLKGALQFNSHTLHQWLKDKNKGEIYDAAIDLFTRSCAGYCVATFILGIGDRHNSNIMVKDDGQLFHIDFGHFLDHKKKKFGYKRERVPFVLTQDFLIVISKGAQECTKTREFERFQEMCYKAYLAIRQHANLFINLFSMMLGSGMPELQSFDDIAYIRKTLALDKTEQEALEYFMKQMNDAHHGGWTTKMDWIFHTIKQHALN
PI3K-p110α, sequence (P27986 whole entry partner): as the sequence (P27986 whole entry partner) above
PI3K-p110γ, sequence (P48736 whole entry): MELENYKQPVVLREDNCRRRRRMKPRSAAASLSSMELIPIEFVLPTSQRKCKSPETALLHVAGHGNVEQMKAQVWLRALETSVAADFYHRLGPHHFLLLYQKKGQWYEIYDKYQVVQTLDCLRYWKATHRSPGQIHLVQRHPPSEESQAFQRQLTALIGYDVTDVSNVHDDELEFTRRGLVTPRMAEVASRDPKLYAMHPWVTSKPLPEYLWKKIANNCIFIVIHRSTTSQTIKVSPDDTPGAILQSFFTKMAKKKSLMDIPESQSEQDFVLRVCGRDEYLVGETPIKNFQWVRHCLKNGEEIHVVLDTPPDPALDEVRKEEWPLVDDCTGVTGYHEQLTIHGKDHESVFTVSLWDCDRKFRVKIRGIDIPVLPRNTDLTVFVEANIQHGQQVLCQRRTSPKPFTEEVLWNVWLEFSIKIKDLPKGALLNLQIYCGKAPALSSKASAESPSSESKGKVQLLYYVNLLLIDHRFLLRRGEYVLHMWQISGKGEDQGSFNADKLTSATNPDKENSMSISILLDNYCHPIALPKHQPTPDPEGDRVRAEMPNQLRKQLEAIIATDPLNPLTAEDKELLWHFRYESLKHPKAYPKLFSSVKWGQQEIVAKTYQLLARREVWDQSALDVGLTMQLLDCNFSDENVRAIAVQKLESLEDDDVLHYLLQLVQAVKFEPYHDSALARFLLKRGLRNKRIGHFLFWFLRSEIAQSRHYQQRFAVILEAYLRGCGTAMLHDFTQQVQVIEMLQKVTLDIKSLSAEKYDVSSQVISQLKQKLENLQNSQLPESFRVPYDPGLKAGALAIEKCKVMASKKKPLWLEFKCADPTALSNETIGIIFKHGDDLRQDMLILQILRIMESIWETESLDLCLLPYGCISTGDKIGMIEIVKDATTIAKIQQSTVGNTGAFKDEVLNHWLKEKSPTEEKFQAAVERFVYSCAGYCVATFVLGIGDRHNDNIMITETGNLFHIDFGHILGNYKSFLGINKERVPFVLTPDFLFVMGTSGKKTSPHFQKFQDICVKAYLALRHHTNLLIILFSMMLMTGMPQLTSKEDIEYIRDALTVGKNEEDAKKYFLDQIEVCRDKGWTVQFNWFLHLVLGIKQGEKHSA

For `Nc1ccc(-c2cc3ncccc3c(N3CCOCC3)n2)cc1Cl` [E, 2-Chloro-4-(5-morpholin-4-yl-[1,6]naphthyridin-7-yl)-phenylamine], the IC50 was 0.69 µM on PI3K-p110β (setting [1]) and 6.06 µM in the assay with MCF7 Breast Tumour Cell.
The like results for `Nc1ccc(-c2cc3ncccc3c(N3CCOCC3)n2)c(Cl)c1` [F, 3-Chloro-4-(5-morpholin-4-yl-[1,6]naphthyridin-7-yl)-phenylamine] were, in that order, 3.7 µM and 10.9 µM.
As to `c1cc(-c2cc3ncccc3c(N3CCOCC3)n2)c2cc[nH]c2c1` [G, 7-(1H-Indol-4-yl)-5-morpholin-4-yl-1,6-naphthyridine], the half-inhibitory concentration (IC50) on PI3K-p110β (isoform panel, second part of table, read-out: IC50 PI3K-p110β) is 3.4 µM; on PI3K-p110α, above 10 µM; on PI3K-p110δ, 0.26 µM; at PI3K-p110γ it was above 10 µM.

The term IC50 denotes the concentration that gives 50% inhibition.
